Measurements published in patent US7057052B2, “Heterocyclic quinones as pharmaceutical agents” (Duke University, priority 2002, dated 2006).

Columns and labels:
Type in all cases: biochemical
Cdc25B = target: T1, Cdc25B (Homo sapiens, UniProt P30305); assay: Cdc25B phosphatase inhibition (50 μM screen, 3 pt. and 8 pt. IC-50); details: for IC50: Cdc25B, 3 pt. IC-50 using 1, 7 and 50 μM, read-out: IC50 (3 pt); for inhibition at 50 µM: read-out: Percent Inhibition at 50 uM compound, Cdc25 B
T1 sequence (P30305 1-580): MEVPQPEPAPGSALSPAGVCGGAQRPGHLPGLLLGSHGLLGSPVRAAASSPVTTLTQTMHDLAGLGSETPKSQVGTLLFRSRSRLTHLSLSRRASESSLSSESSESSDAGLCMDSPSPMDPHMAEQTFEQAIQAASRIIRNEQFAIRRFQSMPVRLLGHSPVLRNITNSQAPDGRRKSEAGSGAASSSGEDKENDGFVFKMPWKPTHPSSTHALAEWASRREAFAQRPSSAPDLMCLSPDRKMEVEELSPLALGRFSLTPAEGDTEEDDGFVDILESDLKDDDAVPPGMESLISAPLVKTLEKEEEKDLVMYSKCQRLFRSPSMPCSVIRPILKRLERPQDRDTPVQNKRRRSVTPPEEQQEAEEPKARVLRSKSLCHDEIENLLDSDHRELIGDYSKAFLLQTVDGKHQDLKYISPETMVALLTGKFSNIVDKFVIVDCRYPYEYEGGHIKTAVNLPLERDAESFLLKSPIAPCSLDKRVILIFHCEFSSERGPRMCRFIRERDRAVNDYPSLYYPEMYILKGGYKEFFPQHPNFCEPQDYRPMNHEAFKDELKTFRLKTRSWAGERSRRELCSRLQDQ
Protocol: (§1) Using procedures known to those skilled in the art, the compounds listed in Table 3 were screened against Cdc25A, Cdc25B, and Cdc25C at 50 μM. […] To analyze these effects further, the compounds were then screened against Cdc25B in a 3 pt. IC-50, using 1, 7 and 50 μM. Several of the compounds were also screened with an 8 pt. IC-50 process, using 0.1–10 μM, allowing determination of Hill slopes.

Cdc25C = target: T2, Cdc25C (Homo sapiens, UniProt P30307); assay: Cdc25C phosphatase inhibition screen at 50 μM; details: read-out: Percent Inhibition at 50 uM compound, Cdc25 C
T2 sequence (P30307 1-473): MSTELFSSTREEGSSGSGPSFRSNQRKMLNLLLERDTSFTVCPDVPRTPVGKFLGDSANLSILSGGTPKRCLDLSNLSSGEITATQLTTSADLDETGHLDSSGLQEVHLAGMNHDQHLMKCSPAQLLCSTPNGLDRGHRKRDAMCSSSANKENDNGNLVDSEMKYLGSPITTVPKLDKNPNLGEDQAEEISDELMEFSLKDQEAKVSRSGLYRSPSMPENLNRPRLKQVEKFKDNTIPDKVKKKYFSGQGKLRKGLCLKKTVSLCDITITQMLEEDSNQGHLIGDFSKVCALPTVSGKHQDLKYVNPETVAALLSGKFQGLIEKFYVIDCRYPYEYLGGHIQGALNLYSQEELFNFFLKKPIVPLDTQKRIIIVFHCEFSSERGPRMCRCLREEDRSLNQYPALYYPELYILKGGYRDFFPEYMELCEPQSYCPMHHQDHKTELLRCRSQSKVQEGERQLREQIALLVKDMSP
Protocol: as §1

Cdc25A = target: T3, Cdc25A (Homo sapiens, UniProt P30304); assay: Cdc25A phosphatase inhibition screen at 50 μM; details: read-out: Percent Inhibition at 50 uM compound, Cdc25 A
T3 sequence (P30304 1-524): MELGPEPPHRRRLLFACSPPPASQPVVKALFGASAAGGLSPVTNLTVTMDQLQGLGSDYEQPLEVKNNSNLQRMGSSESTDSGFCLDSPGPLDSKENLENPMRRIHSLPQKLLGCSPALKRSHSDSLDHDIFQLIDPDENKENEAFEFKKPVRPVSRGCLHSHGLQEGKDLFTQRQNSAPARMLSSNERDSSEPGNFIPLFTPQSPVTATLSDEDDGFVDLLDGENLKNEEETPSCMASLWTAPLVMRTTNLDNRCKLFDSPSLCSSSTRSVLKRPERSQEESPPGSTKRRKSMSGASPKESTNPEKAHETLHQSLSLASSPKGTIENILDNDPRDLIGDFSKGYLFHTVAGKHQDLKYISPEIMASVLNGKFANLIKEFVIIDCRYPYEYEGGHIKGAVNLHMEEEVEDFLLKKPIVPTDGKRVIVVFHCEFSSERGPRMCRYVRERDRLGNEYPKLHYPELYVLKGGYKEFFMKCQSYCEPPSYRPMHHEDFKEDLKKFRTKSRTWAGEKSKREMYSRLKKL
Protocol: as §1

Row | IC50 (Cdc25B) [µM] | inhibition at 50 µM (Cdc25B) [%] | inhibition at 50 µM (Cdc25C) [%] | inhibition at 50 µM (Cdc25A) [%] | SMILES
1 | 117 | 19 | 20 | 39 | COc1cc2[nH]cc(C3=C(O)C(=O)C=C(O)C3=O)c2cc1OC [8A, 2,5-dihydroxy-3-(5,6-dimethoxy-1H-indol-3-yl)-[1,4]-benzoquinone]
2 | 12.8 | 32 | 20 | 90 | Cc1ccc2c(C3=C(O)C(=O)C=C(O)C3=O)c[nH]c2c1C [8B, 2,5-dihydroxy-3-(6,7-dimethyl-1H-indol-3-yl)-[1,4]-benzoquinone]
3 | 2.8 | 79 | 75 | 98 | O=C1C=C(O)C(=O)C(c2c[nH]c3c2ccc2ccccc23)=C1O [8C, 2,5-dihydroxy-3-(1H-benzo[g]indol-3-yl)-[1,4]-benzoquinone]
